Experimental data reported in patent US12522594B2, “2-heteroaryl-3-oxo-2,3-dihydropyridazine-4-carboxamides for the treatment of cancer” (Deutsches Krebsforschungszentrum, priority 2017, dated 2026).

How the values were obtained:
Format in all cases: cell-based
[1] = molecular target: T1, AHR (Homo sapiens, UniProt P35869); test: In vitro assay 3: AHR-regulated CYP1A1 expression in human cell line (U937, qPCR, KA stimulation); settings: U937 cells, 200 uM KA, 6 hours, CYP1A1 expression by qPCR; read-out: Assay 3: Hum CYP1A1 Antagonism IC50
T1 sequence (P35869 11-848): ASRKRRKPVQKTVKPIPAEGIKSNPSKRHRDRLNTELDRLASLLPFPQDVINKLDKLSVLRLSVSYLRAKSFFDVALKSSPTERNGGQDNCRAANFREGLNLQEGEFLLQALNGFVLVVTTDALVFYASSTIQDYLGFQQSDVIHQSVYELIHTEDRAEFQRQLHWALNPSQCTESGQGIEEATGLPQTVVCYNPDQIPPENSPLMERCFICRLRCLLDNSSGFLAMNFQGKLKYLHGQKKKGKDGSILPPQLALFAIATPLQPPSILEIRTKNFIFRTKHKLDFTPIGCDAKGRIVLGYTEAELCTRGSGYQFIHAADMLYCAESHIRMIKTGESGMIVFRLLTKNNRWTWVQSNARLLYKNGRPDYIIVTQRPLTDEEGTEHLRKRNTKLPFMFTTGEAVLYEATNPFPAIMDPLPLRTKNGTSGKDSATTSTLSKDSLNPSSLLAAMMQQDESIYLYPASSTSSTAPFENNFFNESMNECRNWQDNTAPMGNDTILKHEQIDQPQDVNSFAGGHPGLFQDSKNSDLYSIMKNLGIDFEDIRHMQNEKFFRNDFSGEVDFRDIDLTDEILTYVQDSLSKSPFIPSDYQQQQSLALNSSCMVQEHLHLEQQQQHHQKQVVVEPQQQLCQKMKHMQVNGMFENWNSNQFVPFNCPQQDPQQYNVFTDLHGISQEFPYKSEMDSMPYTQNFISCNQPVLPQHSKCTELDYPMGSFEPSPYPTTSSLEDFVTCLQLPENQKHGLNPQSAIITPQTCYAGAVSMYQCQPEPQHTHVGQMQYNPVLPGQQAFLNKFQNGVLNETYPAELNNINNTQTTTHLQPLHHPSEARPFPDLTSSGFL
Experimental: In Vitro Assay 3: AHR-Regulated CYP1A1 Expression in Human Cell Line
To assess the AHR inhibitory activity of the substances described in this application, the ability thereof to antagonise ligand-induced AHR gene regulation in a dose-dependent manner was quantified. For this purpose, quantitative PCR analysis was used to determine expression of the AHR-regulated gene CYP1A1 in a human monocytic U937 cell line upon stimulation with 200 uM KA in the presence and absence of AHR inhibitor. […] CYP1A1 expression was induced with 200 uM KA (positive control) in the presence or absence of the substances for 6 hours. Human U937 cells were typically incubated with eight different concentrations of the substances (1 nM, 3 nM, 10 nM, 30 nM, 100 nM, 300 nM, 1 uM and 3 uM) and analyzed in duplicate on the same microtitre plate. […] Unstimulated cells were used as the negative control. Taqman probes for human CYP1A1 (Hs01054797_g1) and human HPRT (Hs02800695_m1) were used to analyze fold expression of CYP1A1 of HPRT. Quantitation was performed on a Taqman SDS7900HT.

[2] = molecular target: T1, AHR; test: In vitro assay 2: agonism in human cell line (transactivation assay, U87 cells, DRE firefly luciferase reporter); parameters: host or cells: U87 glioblastoma cells, stably transfected with DRE firefly luciferase and renilla reporter constructs; settings: no kynurenic acid, 20 hours, read-out: Assay 2: AHR-luc Hum Agonism IC50
How it was run: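 U87 glioblastoma cells with endogenous AHR, stably carrying DRE-driven firefly luciferase and constitutive renilla reporters. 300 uM kynurenic acid served as positive activation control; data normalized to positive and negative controls.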

[3] = molecular target: T1, AHR; test: In vitro assay 1: antagonism in human cell line (transactivation assay, U87 cells prestimulated with kynurenic acid, DRE firefly luciferase reporter); parameters: host or cells: U87 glioblastoma cells, stably transfected with DRE firefly luciferase and renilla reporter constructs; settings: 150 uM kynurenic acid, 20 hours, read-out: Assay 1: AHR-luc Hum Antagonism IC50
How it was run: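 U87 glioblastoma cells with endogenous AHR, stably carrying a DRE-driven firefly luciferase reporter and a constitutive renilla reporter. Cells prestimulated with the AHR agonist kynurenic acid before compound addition; data normalized to positive and negative controls.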

Row | IC50 [1] [nM] | IC50 [2] [nM] | IC50 [3] [nM] | SMILES
1 | 25.2 | > 20000 | 21.8 | O=C(N[C@H]1COC[C@H]1O)c1cc(-c2ccc(OC(F)(F)F)cc2)nn(-c2cccnc2)c1=O (single isomer, unassigned; enantiomer 1) [Example 158, N-[(cis)-4-Hydroxytetrahydrofuran-3-yl]-3-oxo-2-(pyridin-3-yl)-6-[4-(trifluoromethoxy)phenyl]-2,3-dihydropyridazine-4-carboxamide, Enantiomer 1]
2 | 2.67 | > 20000 | 1.62 | Cn1cc(-n2nc(-c3ccc(C(F)(F)F)cc3)cc(C(=O)N[C@H](CO)CF)c2=O)cn1 [Example 211, N-[(2R)-1-Fluoro-3-hydroxypropan-2-yl]-2-(1-methyl-1H-pyrazol-4-yl)-3-oxo-6-[4-(trifluoromethyl)phenyl]-2,3-dihydropyridazine-4-carboxamide]
3 | 112 | > 20000 | 66.1 | O=C(N[C@H]1COCC[C@H]1O)c1cc(-c2ccc(Cl)cc2)nn(-c2cccnc2)c1=O [Example 175, 1,5-Anhydro-2-({[6-(4-chlorophenyl)-3-oxo-2-(pyridin-3-yl)-2,3-dihydropyridazin-4-yl]carbonyl}amino)-2,4-dideoxy-D-erythro-pentitol]
4 | 1.86 | > 20000 | 2.37 | O=C(N[C@H]1CCC[C@H]1O)c1cc(-c2ccc(C(F)(F)F)cc2)nn(-c2cccnc2)c1=O [Example 105, N-[(1S,2R)-2-Hydroxycyclopentyl]-3-oxo-2-(pyridin-3-yl)-6-[4-(trifluoromethyl)phenyl]-2,3-dihydropyridazine-4-carboxamide]
5 | 38.8 | > 20000 | 66.1 | O=C(N[C@H]1COCC[C@H]1O)c1cc(-c2ccc(OC(F)(F)F)cc2)nn(-c2cccnc2)c1=O [Example 176, 1,5-Anhydro-2,4-dideoxy-2-[({3-oxo-2-(pyridin-3-yl)-6-[4-(trifluoromethoxy)phenyl]-2,3-dihydropyridazin-4-yl}carbonyl)amino]-D-erythro-pentitol]
6 | 9.6 | > 20000 | 8.42 | C[C@@H](NC(=O)c1cc(-c2ccc(C(F)(F)F)cc2)nn(-c2cccnc2)c1=O)C(C)(C)O [Example 234, N-[(2R)-3-Hydroxy-3-methylbutan-2-yl]-3-oxo-2-(pyridin-3-yl)-6-[4-(trifluoromethyl)phenyl]-2,3-dihydropyridazine-4-carboxamide]
7 | 10.5 | > 20000 | 16.9 | CC(C)(O)CNC(=O)c1cc(-c2ccc(Cl)cc2)nn(-c2csc(Cl)c2)c1=O [Example 250, 6-(4-Chlorophenyl)-2-(5-chloro-3-thienyl)-N-(2-hydroxy-2-methylpropyl)-3-oxo-2,3-dihydropyridazine-4-carboxamide]
8 | 0.423 | > 20000 | 2.64 | Cn1cc(-n2nc(-c3ccc(C(F)(F)F)cc3)cc(C(=O)NC[C@H](O)C(F)(F)F)c2=O)cn1 [Example 37, 2-(1-Methyl-1H-pyrazol-4-yl)-3-oxo-N-[(2S)-3,3,3-trifluoro-2-hydroxypropyl]-6-[4-(trifluoromethyl)phenyl]-2,3-dihydropyridazine-4-carboxamide]
9 | 6.43 | > 20000 | 3.92 | Cn1cc(-n2nc(-c3ccc(Cl)cc3)cc(C(=O)NCC(O)C(F)(F)F)c2=O)cn1 (single isomer, unassigned; (-)) [Example 19, (−)-6-(4-Chlorophenyl)-2-(1-methyl-1H-pyrazol-4-yl)-3-oxo-N-(3,3,3-trifluoro-2-hydroxypropyl)-2,3-dihydropyridazine-4-carboxamide]
10 | 4.3 | > 20000 | 7.38 | Cc1ccc(-c2cc(C(=O)NC(CO)C(C)C)c(=O)n(-c3cnn(C)c3)n2)cc1 (stereo not drawn) [Example 1, N-(1-Hydroxy-3-methylbutan-2-yl)-6-(4-methylphenyl)-2-(1-methyl-1H-pyrazol-4-yl)-3-oxo-2,3-dihydropyridazine-4-carboxamide]
11 | 41 | > 20000 | 1.5 | Cn1cc(-n2nc(-c3ccc(Cl)cc3)cc(C(=O)N[C@H](CO)C(F)(F)F)c2=O)cn1 [Example 35, (+)-6-(4-Chlorophenyl)-2-(1-methyl-1H-pyrazol-4-yl)-3-oxo-N-[(2R)-1,1,1-trifluoro-3-hydroxypropan-2-yl]-2,3-dihydropyridazine-4-carboxamide]
12 | 3.77 | > 20000 | 3.67 | O=C(N[C@H](CO)C(F)(F)F)c1cc(-c2ccc(Cl)cc2)nn(-c2cccnc2)c1=O [Example 96, (+)-6-(4-Chlorophenyl)-3-oxo-2-(pyridin-3-yl)-N-[(2R)-1,1,1-trifluoro-3-hydroxypropan-2-yl]-2,3-dihydropyridazine-4-carboxamide]
13 | 38.9 | > 20000 | 28.4 | Cn1cc(-n2nc(-c3ccc(Cl)cc3)cc(C(=O)N[C@H]3COCC[C@H]3O)c2=O)cn1 [Example 61, 1,5-Anhydro-2-({[6-(4-chlorophenyl)-2-(1-methyl-1H-pyrazol-4-yl)-3-oxo-2,3-dihydropyridazin-4-yl]carbonyl}amino)-2,4-dideoxy-D-erythro-pentitol]
14 | 122 | > 20000 | 26.5 | Cc1ccc(-c2cc(C(=O)NCC(O)C(F)F)c(=O)n(-c3cnn(C)c3)n2)cc1 (single isomer, unassigned; enantiomer 2) [Example 15, N-(3,3-Difluoro-2-hydroxypropyl)-6-(4-methylphenyl)-2-(1-methyl-1H-pyrazol-4-yl)-3-oxo-2,3-dihydropyridazine-4-carboxamide, Enantiomer 2]
15 | 40.2 | > 20000 | 21.7 | O=C(NCC(O)C(F)(F)F)c1cc(-c2ccc(Cl)cc2)nn(-c2cccnc2)c1=O (single isomer, unassigned; (+)) [Example 90, (+)-6-(4-Chlorophenyl)-3-oxo-2-(pyridin-3-yl)-N-(3,3,3-trifluoro-2-hydroxypropyl)-2,3-dihydropyridazine-4-carboxamide]
16 | 40.3 | > 20000 | 16.4 | C[C@H](NC(=O)c1cc(-c2ccc(OC(F)F)cc2)nn(-c2cnn(C)c2)c1=O)C(C)(C)O [Example 309, 6-[4-(Difluoromethoxy)phenyl]-N-[(2S)-3-hydroxy-3-methylbutan-2-yl]-2-(1-methyl-1H-pyrazol-4-yl)-3-oxo-2,3-dihydropyridazine-4-carboxamide]
17 | 14.7 | > 20000 | 9.88 | Cn1cc(-n2nc(-c3ccc(C(F)(F)F)cc3)cc(C(=O)N[C@H](CO)C3CC3)c2=O)cn1 [Example 238, N-[(1S)-1-Cyclopropyl-2-hydroxyethyl]-2-(1-methyl-1H-pyrazol-4-yl)-3-oxo-6-[4-(trifluoromethyl)phenyl]-2,3-dihydropyridazine-4-carboxamide]
18 | 24.5 | > 20000 | 13.3 | O=C(N[C@@H]1CCC[C@@H]1O)c1cc(-c2ccc(C(F)(F)F)cc2)nn(-c2cccnc2)c1=O [Example 103, N-[(1R,2S)-2-Hydroxycyclopentyl]-3-oxo-2-(pyridin-3-yl)-6-[4-(trifluoromethyl)phenyl]-2,3-dihydropyridazine-4-carboxamide]
